The results in this text go back to patent US12139520B2 (priority 2020, dated 2024).

One series concerns the target hAM1 receptor (Homo sapiens, UniProt O60895+Q16602). Nature of the series: cAMP assay for in vitro receptor activation, hAM1-R. The conditions noted are these: cAMP assay, hAM1 receptor; read-out: hAM1R EC50. Format: cell-based. In short, it runs like this: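 A subcloned monoclonal line stably expressing hAM1 receptor is thawed and plated at 8000 cells/well. The assay buffer is DPBS with 0.05% casein and 0.5 mM IBMX, and receptor activation is followed by cAMP levels.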
A general note: Cyclic AMP is a second messenger, typically raised through Gs and lowered through Gi signalling.

Series [1] can be described thus: Physical stability of peptide analogues (Thioflavin T fibrillation). It counts as physicochemical. The conditions noted are these: maximum ThT signal normalized between hAMY maximum and buffer background; 40° C., shaking, four days; pH 7 per table title. In short, it runs like this:
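Samples are stressed at 40 °C for four days, being shaken at 700 rpm before each 10-min fluorescence reading of 4 μM Thioflavin T. Buffers were pH 4 acetate or pH 7 phosphate. Reported values are smoothed maximum ThT signals as a percentage of the hAMY-to-background range.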

The structures appear in SMILES notation. Bridge positions count the residues as written; N and C are the ends. Square brackets hold non-standard residues; d marks the D form. Peptide text beside a SMILES is read from it. Hyp = O=C(O)[C@@H]1C[C@@H](O)CN1; Cit = NC(=O)NCCC[C@H](N)C(=O)O A value given as a limit tells only on which side of the number the result lay.

Chain of hAM1 receptor (Q16602 23-461): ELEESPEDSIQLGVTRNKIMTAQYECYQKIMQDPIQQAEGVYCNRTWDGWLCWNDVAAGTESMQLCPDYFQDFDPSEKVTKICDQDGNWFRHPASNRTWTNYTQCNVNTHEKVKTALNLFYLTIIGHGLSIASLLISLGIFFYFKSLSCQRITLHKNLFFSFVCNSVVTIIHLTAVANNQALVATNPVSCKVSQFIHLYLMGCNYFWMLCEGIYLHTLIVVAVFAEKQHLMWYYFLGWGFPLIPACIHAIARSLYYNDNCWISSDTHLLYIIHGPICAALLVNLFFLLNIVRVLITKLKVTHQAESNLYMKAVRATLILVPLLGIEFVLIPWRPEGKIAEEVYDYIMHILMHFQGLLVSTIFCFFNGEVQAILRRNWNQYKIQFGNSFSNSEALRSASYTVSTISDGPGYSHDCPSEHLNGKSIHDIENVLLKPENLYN
Chain of hAM1 receptor (O60895 43-175 partner): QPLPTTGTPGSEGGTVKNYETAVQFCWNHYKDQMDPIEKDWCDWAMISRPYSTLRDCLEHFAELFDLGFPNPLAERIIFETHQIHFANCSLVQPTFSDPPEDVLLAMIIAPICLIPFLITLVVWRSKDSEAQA

Turning to `CC[C@H](C)[C@H](NC(=O)[C@H](CCC(N)=O)NC(=O)[C@H](Cc1c[nH]cn1)NC(=O)[C@H](C)NC(=O)[C@H](CC(C)C)NC(=O)[C@H](CCCNC(N)=O)NC(=O)[C@H](CCC(N)=O)NC(=O)[C@@H](NC(=O)[C@@H](NC(=O)[C@@H]1CSSC[C@H](NC(=O)CN)C(=O)N[C@@H](CCCNC(=N)N)C(=O)N[C@@H](Cc2ccccc2)C(=O)NCC(=O)N[C@@H]([C@@H](C)O)C(=O)N1)[C@@H](C)O)C(C)C)C(=O)N[C@@H](Cc1ccc(O)cc1)C(=O)N[C@@H](CCC(N)=O)C(=O)N[C@@H](Cc1ccccc1)C(=O)N[C@H](C(=O)N[C@@H](CC(=O)O)C(=O)N[C@@H](CCCCN)C(=O)N[C@@H](CC(=O)O)C(=O)N[C@@H](CCCCN)C(=O)N[C@@H](CC(=O)O)C(=O)N[C@@H](CC(N)=O)C(=O)N[C@H](C(=O)N[C@@H](C)C(=O)N1CCC[C@H]1C(=O)N[C@@H](CCCNC(=N)N)C(=O)N[C@H](C(=O)N[C@@H](CCCCN)C(=O)N[C@H](C(=O)N[C@@H](CO)C(=O)N1CCC[C@H]1C(=O)N[C@@H](CCC(N)=O)C(=O)NCC(=O)N1C[C@H](O)C[C@H]1C(N)=O)C(C)C)[C@@H](C)O)C(C)C)[C@@H](C)O` [compound 287] (H-GCRFGTCTVQ[Cit]LAHQIYQFTDKDKDNVAPRTKVSPQG[Hyp]-NH2; disulfide 2-7; N-terminus assumed), the half-maximal effective concentration (EC50) (in general, the midpoint of the concentration-response curve) on hAM1 receptor was over 5 µM. For the same compound, in series [1], the “Max ThT signal (%)” value was determined as 10.650%.

Take `CC[C@H](C)[C@H](NC(=O)[C@H](CCC(N)=O)NC(=O)[C@H](Cc1c[nH]cn1)NC(=O)[C@H](C)NC(=O)[C@H](CC(C)C)NC(=O)[C@H](CCCNC(N)=O)NC(=O)[C@H](CCC(N)=O)NC(=O)[C@@H](NC(=O)[C@@H](NC(=O)[C@@H]1CSSC[C@H](NC(=O)CN)C(=O)N[C@@H](CCCNC(=N)N)C(=O)N[C@@H]([C@@H](C)O)C(=O)NCC(=O)N[C@@H]([C@@H](C)O)C(=O)N1)[C@@H](C)O)C(C)C)C(=O)N[C@@H](Cc1ccc(O)cc1)C(=O)N[C@@H](CCC(N)=O)C(=O)N[C@@H](Cc1ccccc1)C(=O)N[C@H](C(=O)N[C@@H](CC(=O)O)C(=O)N[C@@H](CCCCN)C(=O)N[C@@H](CC(=O)O)C(=O)N[C@@H](CCCCN)C(=O)N[C@@H](CC(=O)O)C(=O)N[C@@H](CC(N)=O)C(=O)N[C@H](C(=O)N[C@@H](C)C(=O)N1CCC[C@H]1C(=O)N[C@@H](CCCNC(=N)N)C(=O)N[C@H](C(=O)N[C@@H](CCCCN)C(=O)N[C@H](C(=O)NCC(=O)N1CCC[C@H]1C(=O)N[C@@H](CCC(N)=O)C(=O)NCC(=O)N1C[C@H](O)C[C@H]1C(N)=O)C(C)C)[C@@H](C)O)C(C)C)[C@@H](C)O` [compound 292] (H-GCRTGTCTVQ[Cit]LAHQIYQFTDKDKDNVAPRTKVGPQG[Hyp]-NH2; disulfide 2-7; N-terminus assumed): the 50% effective concentration (EC50) on hAM1 receptor was over 5 µM. Besides, the “Max ThT signal (%)” value in series [1] was determined as 19.700%.

In the case of `CC[C@H](C)[C@@H]1NC(=O)[C@H](CCCNC(=N)N)NC(=O)[C@@H](NC(=O)CN)CSSC[C@@H](C(=O)N[C@H](C(=O)N[C@H](C(=O)N[C@@H](CCC(N)=O)C(=O)N[C@@H](CCCNC(N)=O)C(=O)N[C@@H](CC(C)C)C(=O)N[C@@H](C)C(=O)N[C@@H](Cc2c[nH]cn2)C(=O)N[C@@H](CCC(N)=O)C(=O)N[C@H](C(=O)N[C@@H](Cc2ccc(O)cc2)C(=O)N[C@@H](CCC(N)=O)C(=O)N[C@@H](Cc2ccccc2)C(=O)N[C@H](C(=O)N[C@@H](CC(=O)O)C(=O)N[C@@H](CCCCN)C(=O)N[C@@H](Cc2ccccc2)C(=O)N[C@@H](CCCCN)C(=O)N[C@@H](CC(=O)O)C(=O)N[C@@H](CC(N)=O)C(=O)N[C@H](C(=O)N[C@@H](C)C(=O)N2CCC[C@H]2C(=O)N[C@@H](CCCNC(=N)N)C(=O)N[C@@H](CO)C(=O)N[C@@H](CCCCN)C(=O)N[C@H](C(=O)N[C@@H](CO)C(=O)N2CCC[C@H]2C(=O)N[C@@H](CCC(N)=O)C(=O)N[C@H](C(=O)N2C[C@H](O)C[C@H]2C(N)=O)[C@@H](C)O)[C@@H](C)CC)C(C)C)[C@@H](C)O)[C@@H](C)CC)C(C)C)[C@@H](C)O)NC(=O)[C@H]([C@@H](C)O)NC(=O)CNC1=O` [compound 295] (H-GCRIGTCTVQ[Cit]LAHQIYQFTDKFKDNVAPRSKISPQT[Hyp]-NH2; disulfide 2-7; N-terminus assumed), the EC50 on hAM1 receptor was over 5 µM. Moreover, in series [1], the “Max ThT signal (%)” value worked out at 19.450%.

For `CC[C@H](C)[C@H](NC(=O)[C@H](CCC(N)=O)NC(=O)[C@H](Cc1c[nH]cn1)NC(=O)[C@H](C)NC(=O)[C@H](CC(C)C)NC(=O)[C@H](CCCNC(N)=O)NC(=O)[C@H](CCC(N)=O)NC(=O)[C@@H](NC(=O)[C@@H](NC(=O)[C@@H]1CSSC[C@H](NC(=O)CN)C(=O)N[C@@H](CCCNC(=N)N)C(=O)N[C@@H](Cc2c[nH]c3ccccc23)C(=O)NCC(=O)N[C@@H]([C@@H](C)O)C(=O)N1)[C@@H](C)O)C(C)C)C(=O)N[C@@H](Cc1ccc(O)cc1)C(=O)N[C@@H](CCC(N)=O)C(=O)N[C@@H](Cc1ccccc1)C(=O)N[C@H](C(=O)N[C@@H](CC(=O)O)C(=O)N[C@@H](CCCCN)C(=O)N[C@@H](CC(=O)O)C(=O)N[C@@H](CCCCN)C(=O)N[C@@H](CC(=O)O)C(=O)N[C@@H](CC(N)=O)C(=O)N[C@H](C(=O)N[C@@H](C)C(=O)N1CCC[C@H]1C(=O)N[C@@H](CCCNC(=N)N)C(=O)N[C@@H](CO)C(=O)N[C@@H](CCCCN)C(=O)N[C@H](C(=O)N[C@@H](CO)C(=O)N1CCC[C@H]1C(=O)N[C@@H](CCC(N)=O)C(=O)N[C@H](C(=O)N1C[C@H](O)C[C@H]1C(N)=O)[C@@H](C)O)[C@@H](C)CC)C(C)C)[C@@H](C)O` [compound 296] (H-GCRWGTCTVQ[Cit]LAHQIYQFTDKDKDNVAPRSKISPQT[Hyp]-NH2; disulfide 2-7; N-terminus assumed), the EC50 on hAM1 receptor was over 5 µM. Moreover, the “Max ThT signal (%)” value in series [1] turned out to be 26.050%.

In the case of `CC[C@H](C)[C@H](NC(=O)[C@H](CCC(N)=O)NC(=O)[C@H](Cc1c[nH]cn1)NC(=O)[C@H](C)NC(=O)[C@H](CC(C)C)NC(=O)[C@H](CCCNC(N)=O)NC(=O)[C@H](CCC(N)=O)NC(=O)[C@@H](NC(=O)[C@@H](NC(=O)[C@@H]1CSSC[C@H](NC(=O)CN)C(=O)N[C@@H](CCCNC(=N)N)C(=O)N[C@@H]([C@@H](C)O)C(=O)NCC(=O)N[C@@H]([C@@H](C)O)C(=O)N1)[C@@H](C)O)C(C)C)C(=O)N[C@@H](Cc1ccc(O)cc1)C(=O)N[C@@H](CCC(N)=O)C(=O)N[C@@H](Cc1ccccc1)C(=O)N[C@H](C(=O)N[C@@H](CC(=O)O)C(=O)N[C@@H](CCCCN)C(=O)N[C@@H](CC(=O)O)C(=O)N[C@@H](CCCCN)C(=O)N[C@@H](CC(=O)O)C(=O)N[C@@H](CC(N)=O)C(=O)N[C@H](C(=O)N[C@@H](C)C(=O)N1CCC[C@H]1C(=O)N[C@@H](CCCNC(=N)N)C(=O)N[C@H](C(=O)N[C@@H](CCCCN)C(=O)N[C@H](C(=O)NCC(=O)N1CCC[C@H]1C(=O)N[C@@H](CCC(N)=O)C(=O)NCC(=O)N[C@@H](Cc1ccc(O)cc1)C(N)=O)C(C)C)[C@@H](C)O)C(C)C)[C@@H](C)O` [compound 298] (H-GCRTGTCTVQ[Cit]LAHQIYQFTDKDKDNVAPRTKVGPQGY-NH2; disulfide 2-7; N-terminus assumed), the EC50 on hAM1 receptor is over 5 µM. Further, in series [1], the “Max ThT signal (%)” value turned out to be 31.250%.

As for `CC[C@H](C)[C@H](NC(=O)[C@H](CCCCN)NC(=O)[C@H](CO)NC(=O)[C@H](CCCNC(=N)N)NC(=O)[C@@H]1CCCN1C(=O)[C@H](C)NC(=O)[C@@H](NC(=O)[C@H](CC(N)=O)NC(=O)[C@H](CC(=O)O)NC(=O)[C@H](CCCCN)NC(=O)[C@H](CC(=O)O)NC(=O)[C@H](CCCCN)NC(=O)[C@H](CC(=O)O)NC(=O)[C@@H](NC(=O)[C@H](Cc1ccccc1)NC(=O)[C@H](CCC(N)=O)NC(=O)[C@H](Cc1ccc(O)cc1)NC(=O)[C@@H](NC(=O)[C@H](CCC(N)=O)NC(=O)[C@H](Cc1c[nH]cn1)NC(=O)[C@H](C)NC(=O)[C@H](CC(C)C)NC(=O)[C@H](CCCNC(N)=O)NC(=O)[C@H](CCC(N)=O)NC(=O)[C@@H](NC(=O)[C@@H](NC(=O)[C@@H]1CSSC[C@H](NC(=O)CN)C(=O)N[C@@H](CCCNC(=N)N)C(=O)N[C@@H]([C@@H](C)O)C(=O)NCC(=O)N[C@@H]([C@@H](C)O)C(=O)N1)[C@@H](C)O)C(C)C)[C@@H](C)CC)[C@@H](C)O)C(C)C)C(=O)NCC(=O)N1CCC[C@H]1C(=O)N[C@@H](CC(N)=O)C(=O)NCC(=O)N1C[C@H](O)C[C@H]1C(N)=O` [compound 299] (H-GCRTGTCTVQ[Cit]LAHQIYQFTDKDKDNVAPRSKIGPNG[Hyp]-NH2; disulfide 2-7; N-terminus assumed), on hAM1 receptor, the EC50 was over 5 µM. In series [1], the “Max ThT signal (%)” value amounted to 26.550%.

Regarding `CC[C@H](C)[C@H](NC(=O)[C@H](CCCCN)NC(=O)[C@@H](NC(=O)[C@H](CCCNC(=N)N)NC(=O)[C@@H]1CCCN1C(=O)[C@H](C)NC(=O)[C@@H](NC(=O)[C@H](CC(N)=O)NC(=O)[C@H](CC(=O)O)NC(=O)[C@H](CCCCN)NC(=O)[C@H](CC(=O)O)NC(=O)[C@H](CCCCN)NC(=O)[C@H](CC(=O)O)NC(=O)[C@@H](NC(=O)[C@H](Cc1ccccc1)NC(=O)[C@H](CCC(N)=O)NC(=O)[C@H](Cc1ccc(O)cc1)NC(=O)[C@@H](NC(=O)[C@H](CCC(N)=O)NC(=O)[C@H](Cc1c[nH]cn1)NC(=O)[C@H](C)NC(=O)[C@H](CC(C)C)NC(=O)[C@H](CCCNC(N)=O)NC(=O)[C@H](CCC(N)=O)NC(=O)[C@@H](NC(=O)[C@@H](NC(=O)[C@@H]1CSSC[C@H](NC(=O)CN)C(=O)N[C@@H](CCCNC(=N)N)C(=O)N[C@@H]([C@@H](C)O)C(=O)NCC(=O)N[C@@H]([C@@H](C)O)C(=O)N1)[C@@H](C)O)C(C)C)[C@@H](C)CC)[C@@H](C)O)C(C)C)[C@@H](C)O)C(=O)NCC(=O)N1CCC[C@H]1C(=O)N[C@@H](CCC(N)=O)C(=O)NCC(=O)N1C[C@H](O)C[C@H]1C(N)=O` [compound 301] (H-GCRTGTCTVQ[Cit]LAHQIYQFTDKDKDNVAPRTKIGPQG[Hyp]-NH2; disulfide 2-7; N-terminus assumed), the EC50 at hAM1 receptor is over 5 µM. Moreover, in series [1], the “Max ThT signal (%)” value is 16.950%.
